Reference: patent US20130058930A1 (ANTARES PHARMA, INC., priority 2011, published 2013)
Where two headings read alike, the source gives them in different places.

Legend:
[1] = cited from earlier work; for average mean serum concentration: pediatric patients with juvenile rheumatoid arthritis
[2] = Three-period crossover relative bioavailability study of methotrexate injectable solutions (Vibex device SC vs needle and syringe SC and IM); assay type: in vivo, human; conditions: for AUC(0-inf) / Tmax / AUC(0-t) / Cmax / half-life: human, plasma, sc, subcutaneous with Vibex device
Protocol: This was a randomized, open-label, 3-way crossover study involving 36 subjects. During the screening period, 1 of 4 MTX dose groups (10 mg, 15 mg, 20 mg, or 25 mg) were selected by the investigator for each subject based on the subject's current MTX dose at the time of enrollment and disease status (controlled RA vs. uncontrolled RA). […] One of six treatment sequences was possible as determined by the randomization schedule.
A total of approximately 200 ml blood was obtained from each subject over the course of the study.
Immediately following collection of each sample, each tube was gently inverted and placed in ice. Within 30 minutes of sample collection, the tubes were centrifuged at about 2000×G for 15 minutes at approximately 4° C. in order to separate the cells from the plasma. No aids for separation were used. The plasma was transferred with clean pipettes and placed in two polypropylene storage tubes in equal volumes. The storage tubes were labeled with the following information: protocol number, subject number, period number, relative time of sample, and analyte. The label was taped with clear tape to assure adherence of the label. The storage tubes were placed in a freezer at […] or below until they analyzed.
Briefly, in an ice water bath, 100 μL of the human K2EDTA plasma sample was placed in a 2-ml centrifuge tube. 10 μL of working standard solution and 10 μL of internal standard were added to the tubes. Afterwards, […] of 30% formic acid in water was added to the tubes and 0.2 ml of cold precipitation solution (acetonitrile) was added, vortexed and centrifuged. The supernatant was transferred to a 96-well plate for LC/MS/MS analysis. A volume of approximately 5 μL of the sample was injected into an LC/MS/MS system. The LC/MS/MS analysis was carried out with a Sciex API-4000 mass spectrometer coupled with a Shimadzu LC system. […] Calibration curves and quality control samples were included in each run. The ranges of the assay for both analyses were from 1 ng/ml to 1000 ng/ml, and the limit of quantification for both analyses was 1 ng/ml.
Concentration values that were reported as below the limit of quantification (BLQ) were treated as 0 for computing mean concentrations and in the concentration-time graphs. […] Concentrations in plasma were used as reported; but measurable concentrations observed after obtaining a BLQ result were excluded from analysis.
The Linear Up Log Down method (equivalent to the Linear Up/Log Down option in WinNonlin® Professional) was used in the computation of AUCs. The linear trapezoidal method was employed for any area where the concentration data was increasing (or constant) and the logarithmic trapezoidal method for any area where the concentration data was decreasing. Interpolation of concentration values was conducted using the linear interpolation rule for any time point surrounded by points of increasing (or constant) concentrations and the logarithmic interpolation rule for any time point surrounded by points of decreasing concentrations.
Pharmacokinetic parameters were calculated from the individual concentrations of MTX using noncompartmental methods. […] Secondary PK parameters calculated for each treatment were the following: time of maximum concentration (t . . . ), half-life (tin), Lambda z, and percent of area under the curve extrapolated.
Comparisons among treatments were evaluated by a mixed model analysis of the log-transformed, dose-normalized values of Cmax, AUC(0-t), and AUC(0-inf) with sequence, treatment, and treatment period as fixed effects and subject nested within sequence as a random effect. Using these models, the least-squares (LS) mean for the above PK parameters of each treatment were determined. The differences in LS means among treatments and the 90% confidence intervals (CIs) for the differences in the log-scale LS means among treatment were also obtained.

AUC(0-inf) ([2]; 10 mg, 10 mg single dose): ~1160 ng·h/mL
Tmax ([2]; 10 mg, 10 mg single dose): 1.33 h
AUC(0-t) ([2]; 10 mg, 10 mg single dose, read-out: AUC(0-24)): ~1150 ng·h/mL
AUC(0-t) ([2]; 10 mg, 10 mg single dose, read-out: AUC(0-t)): ~1140 ng·h/mL
Cmax ([2]; 10 mg, 10 mg single dose, subjects with rheumatoid arthritis): ~213 ng/mL
AUC(0-inf) ([2]; 15 mg, 15 mg single dose): ~1980 ng·h/mL
Cmax ([2]; 15 mg, 15 mg single dose): ~356 ng/mL
Tmax ([2]; 15 mg, 15 mg single dose): ~1.25 h
half-life ([2]; 15 mg, 15 mg single dose): ~3.68 h
AUC(0-t) ([2]; 15 mg, 15 mg single dose, read-out: AUC(0-24)): ~1950 ng·h/mL
AUC(0-t) ([2]; 15 mg, 15 mg single dose, read-out: AUC(0-t)): ~1940 ng·h/mL
AUC(0-inf) ([2]; 20 mg, 20 mg single dose): ~2220 ng·h/mL
Cmax ([2]; 20 mg, 20 mg single dose): ~417 ng/mL
Tmax ([2]; 20 mg, 20 mg single dose): ~1.17 h
half-life ([2]; 20 mg, 20 mg single dose): ~3.58 h
AUC(0-t) ([2]; 20 mg, 20 mg single dose, read-out: AUC(0-24)): ~2190 ng·h/mL
AUC(0-t) ([2]; 20 mg, 20 mg single dose, read-out: AUC(0-t)): ~2190 ng·h/mL
AUC(0-inf) ([2]; 25 mg, 25 mg single dose): ~2840 ng·h/mL
Cmax ([2]; 25 mg, 25 mg single dose): ~491 ng/mL
Tmax ([2]; 25 mg, 25 mg single dose): ~1.23 h
half-life ([2]; 25 mg, 25 mg single dose): ~3.78 h
AUC(0-t) ([2]; 25 mg, 25 mg single dose, read-out: AUC(0-24)): ~2800 ng·h/mL
AUC(0-t) ([2]; 25 mg, 25 mg single dose, read-out: AUC(0-t)): ~2800 ng·h/mL
SMILES: CN(Cc1cnc2nc(N)nc(N)c2n1)c1ccc(C(=O)N[C@@H](CCC(=O)O)C(=O)O)cc1 [methotrexate, N-[4-[[(2,4-diamino-6-pteridinyl)methyl]methylamino]benzoyl]-L-glutamic acid]
initial average distribution volume ([1]; after intravenous administration): about 0.18 L/Kg
absorption from parenteral routes of injection ([1]; in vivo): completely absorbed
average mean serum concentration ([1]; at about 1 hour): about 0.59 μM
average mean serum concentration ([1]; at about 2 hours): about 0.44 μM
average mean serum concentration ([1]; at about 3 hours): about 0.29 μM
dose proportionality of observed plasma levels ([2]; single-dose administration, 10 mg to 25 mg dose range): increase linearly in a dose-proportionate manner
